SMILES strings stand for the structures.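 Growth conditions: 96-well plates. Treatment: test compound, 48 hours, 5 concentrations. Analysis: linear interpolation between bracketing concentrations; unreached endpoints set to highest concentration. The concentration for 50% growth inhibition is given as GI50.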 The source made the active and inactive calls. No stated cut-off is given here; in the data, active = GI50 up to about 1.1 µM and inactive = higher.

Among the test systems are BT-549; DU-145; HCC 2998; HOP-62; HOP-92; Hs-578T; IGROV-1; LOX IMVI; M14; MCF7; NCI-H460; NCI/ADR-RES; OVCAR-3; OVCAR-8; PC-3; SF-295; SK-MEL-2; SNB-19; SW-620; U-251.
Assay in all cases: inhibition of tumour cell growth, NCI panel, 48 h

In the case of `CC(=O)OCC1=CC2OC(=O)C3=COC(OC4OC(CO)C(O)C(O)C4O)C1C32` (centres undefined), the GI50 in the experiment with BT-549, in the experiment on DU-145, in the experiment with HCC 2998, with HOP-62, with HOP-92 and in the experiment with Hs-578T was > 100 µM (inactive) in each case. For the same compound, the GI50 in the experiment with IGROV-1 was > 100 µM (inactive); with LOX IMVI, > 100 µM (inactive); with M14 it was > 100 µM (inactive); with MCF7, > 100 µM (inactive); with NCI-H460, > 10 µM (inactive); in the experiment with NCI/ADR-RES, > 100 µM (inactive). The GI50 in the experiment on OVCAR-3, with OVCAR-8, with PC-3, with SF-295, in the experiment with SK-MEL-2 and in the experiment with SNB-19 was > 100 µM (inactive) each time. The GI50 with SW-620 and in the experiment on U-251 was > 100 µM (inactive) each time.

For `S=C(N/N=C/c1ccccn1)N1CCCCC1`, the GI50 in the experiment with BT-549 was 0.0249 µM (active); with DU-145 it was 0.243 µM (active); in the experiment with HCC 2998 it was 1.22 µM (inactive); in the experiment on HOP-62, < 0.01 µM (active); with HOP-92, 0.212 µM (active); with Hs-578T it was 0.902 µM (active). The GI50 was < 0.01 µM (active) with IGROV-1; < 0.01 µM (active) in the experiment with LOX IMVI; < 0.01 µM (active) with M14; < 0.01 µM (active) in the experiment with MCF7; < 0.019 µM (active) in the experiment on NCI-H460; < 0.01 µM (active) with NCI/ADR-RES. Also, the GI50 was < 0.01 µM (active) in the experiment with OVCAR-3; < 0.01 µM (active) with OVCAR-8; < 0.01 µM (active) in the experiment on PC-3; 0.121 µM (active) in the experiment with SF-295; 0.0695 µM (active) in the experiment with SK-MEL-2; 1.23 µM (inactive) in the experiment with SNB-19. The figures for the GI50 in the experiment with SW-620 and in the experiment on U-251 were < 0.0122 µM (active) and < 0.0126 µM (active), respectively.

Regarding `CCOC(=O)c1cc2ncccc2c2ccccc12`, the GI50 in the experiment with BT-549, in the experiment on DU-145, in the experiment with HCC 2998, in the experiment with HOP-62, with HOP-92 and in the experiment on Hs-578T was > 100 µM (inactive) throughout. Besides, the GI50 with IGROV-1, in the experiment with LOX IMVI, with M14, in the experiment with MCF7, in the experiment on NCI-H460 and in the experiment on NCI/ADR-RES was > 100 µM (inactive) in each case. Also, the GI50 in the experiment on OVCAR-3, in the experiment on OVCAR-8, in the experiment with PC-3, with SF-295, with SK-MEL-2 and in the experiment with SNB-19 was > 100 µM (inactive) each time. Moreover, the GI50 with U-251 is > 100 µM (inactive).

On to `CCOC(=O)c1c(OCC)[nH]c(=O)c(C(c2cccs2)c2c(O)c(C(=O)OCC)c(OCC)[nH]c2=O)c1O`, for which the GI50 is 5 µM (inactive) with BT-549; 13.9 µM (inactive) in the experiment on DU-145; 13.9 µM (inactive) in the experiment on HCC 2998; 10.4 µM (inactive) with HOP-62; 9.42 µM (inactive) with HOP-92; 21 µM (inactive) with Hs-578T. For the same compound, the GI50 is 13.9 µM (inactive) in the experiment with IGROV-1; 12.6 µM (inactive) in the experiment with LOX IMVI; 16.1 µM (inactive) with M14; 14.9 µM (inactive) with MCF7; 13.3 µM (inactive) in the experiment on NCI-H460; 27.4 µM (inactive) in the experiment with NCI/ADR-RES. Also, the GI50 with OVCAR-3 was 11.6 µM (inactive); in the experiment with OVCAR-8, 12.6 µM (inactive); in the experiment with PC-3, 18.2 µM (inactive); in the experiment on SF-295, 12 µM (inactive); with SK-MEL-2, 12.8 µM (inactive); in the experiment on SNB-19 it was 11.4 µM (inactive). The results for the GI50 with SW-620 and with U-251 were 12.1 µM (inactive) and 12.4 µM (inactive), respectively.

For `CC(C)N1C=[N+](C(C)C)CC1`, the GI50 with BT-549, with DU-145, with HCC 2998, in the experiment with HOP-62, in the experiment with HOP-92 and in the experiment on Hs-578T was > 100 µM (inactive) each time. Moreover, the GI50 in the experiment on IGROV-1, in the experiment on LOX IMVI, in the experiment with M14, with MCF7, in the experiment with NCI-H460 and in the experiment on NCI/ADR-RES was > 100 µM (inactive) each time. Moreover, the GI50 in the experiment on OVCAR-3, in the experiment with OVCAR-8, in the experiment with PC-3, in the experiment on SF-295, in the experiment with SK-MEL-2 and with SNB-19 was > 100 µM (inactive) in each case. Also, the GI50 in the experiment on SW-620 and with U-251 was > 100 µM (inactive) each time.

As for `CN1c2c(O)nc(N)nc2NCC1CCNc1ccc(C(=O)NC(CCC(=O)O)C(=O)O)cc1` (centres undefined), the GI50 in the experiment with BT-549 was 1440 µM (inactive); with DU-145, 1330 µM (inactive); in the experiment on HCC 2998, 993 µM (inactive); in the experiment on HOP-62, 467 µM (inactive); with HOP-92, 1490 µM (inactive); in the experiment with Hs-578T, 2120 µM (inactive). The GI50 was 1030 µM (inactive) with IGROV-1; 4.06 µM (inactive) in the experiment on LOX IMVI; 10.3 µM (inactive) with M14; 324 µM (inactive) with MCF7; 35.6 µM (inactive) in the experiment on NCI-H460; 1920 µM (inactive) with NCI/ADR-RES. Also, the GI50 was 857 µM (inactive) with OVCAR-3; 1160 µM (inactive) in the experiment with OVCAR-8; 7.16 µM (inactive) in the experiment on PC-3; 187 µM (inactive) in the experiment on SF-295; 1470 µM (inactive) in the experiment with SK-MEL-2; 1820 µM (inactive) in the experiment with SNB-19. The GI50 in the experiment on SW-620 was 52.4 µM (inactive); in the experiment with U-251, 32.4 µM (inactive).

`O=[N+]([O-])C1(CO)COC2(OC1)c1ccccc1-c1ccccc12`: the GI50 in the experiment with BT-549 was > 53.6 µM (inactive); in the experiment with DU-145 it was 39.4 µM (inactive); with HCC 2998 it was > 100 µM (inactive); with HOP-62, > 100 µM (inactive); in the experiment on HOP-92, > 71.1 µM (inactive); in the experiment on Hs-578T it was > 100 µM (inactive). Moreover, the GI50 in the experiment with IGROV-1 was > 89.1 µM (inactive); in the experiment on LOX IMVI, 45.6 µM (inactive); with M14 it was 54.7 µM (inactive); in the experiment on MCF7 it was 48 µM (inactive); in the experiment on NCI-H460, > 77.4 µM (inactive); in the experiment with NCI/ADR-RES, > 48.3 µM (inactive). The GI50 with OVCAR-3 was > 73.5 µM (inactive); in the experiment with OVCAR-8 it was > 78.3 µM (inactive); in the experiment with PC-3, > 74.8 µM (inactive); with SF-295 it was > 100 µM (inactive); in the experiment on SK-MEL-2 it was > 100 µM (inactive); with SNB-19, > 100 µM (inactive). Further, the figures for the GI50 in the experiment with SW-620 and in the experiment on U-251 were 21.6 µM (inactive) and > 77.8 µM (inactive), respectively.

As to `O=C1C=C2CO[C@H]3OC[C@H](O)[C@@H]1[C@@H]23`, the GI50 in the experiment on BT-549 was 53.1 µM (inactive); in the experiment on DU-145, > 100 µM (inactive); in the experiment on HCC 2998, 29 µM (inactive); with HOP-62 it was > 100 µM (inactive); in the experiment with HOP-92, 46.3 µM (inactive); with Hs-578T, > 100 µM (inactive). Further, the GI50 in the experiment with IGROV-1 was > 100 µM (inactive); in the experiment with LOX IMVI, 32.7 µM (inactive); in the experiment on M14, > 100 µM (inactive); in the experiment on MCF7, 43.2 µM (inactive); in the experiment on NCI-H460 it was > 100 µM (inactive); in the experiment with NCI/ADR-RES, > 100 µM (inactive). For the same compound, the GI50 in the experiment on OVCAR-3 was > 100 µM (inactive); in the experiment on OVCAR-8, 32 µM (inactive); with PC-3, > 100 µM (inactive); with SF-295 it was > 100 µM (inactive); in the experiment with SK-MEL-2, 16.3 µM (inactive); in the experiment with SNB-19, > 100 µM (inactive). Besides, the GI50 is 30.1 µM (inactive) in the experiment with SW-620 and 19.7 µM (inactive) in the experiment with U-251.

Regarding `C=C=C(CC(CC(=C)Br)(C(=O)OC)C(=O)OC)S(=O)(=O)c1ccccc1`, the GI50 in the experiment on BT-549 was 1.4 µM (inactive); with DU-145, 1.6 µM (inactive); with HCC 2998 it was 2.58 µM (inactive); with HOP-62, 5.21 µM (inactive); in the experiment on HOP-92, 1.95 µM (inactive); in the experiment on Hs-578T, 2.39 µM (inactive). Also, the GI50 in the experiment on IGROV-1 was 1.66 µM (inactive); in the experiment on LOX IMVI, 0.419 µM (active); in the experiment with M14 it was 1.96 µM (inactive); in the experiment on MCF7, 1.87 µM (inactive); in the experiment on NCI-H460, 5.86 µM (inactive); in the experiment with NCI/ADR-RES, 2.26 µM (inactive). In addition, the GI50 with OVCAR-3 is 2.27 µM (inactive); in the experiment with OVCAR-8, 1.29 µM (inactive); in the experiment on PC-3, 1.73 µM (inactive); in the experiment with SF-295, 13.4 µM (inactive); in the experiment on SK-MEL-2 it was 2.5 µM (inactive); in the experiment with SNB-19 it was 12.2 µM (inactive). The results for the GI50 with SW-620 and in the experiment on U-251 were 1.58 µM (inactive) and 1.5 µM (inactive), respectively.

`O=[N+]([O-])C[C@@]12O[C@]3(O)C4C5CC(C6C5C3C61)C42` (some centres undefined): the GI50 in the experiment on BT-549 is > 100 µM (inactive); with DU-145 it was > 100 µM (inactive); in the experiment with HCC 2998, < 0.01 µM (active); in the experiment with HOP-62, > 100 µM (inactive); in the experiment with HOP-92 it was > 100 µM (inactive); in the experiment with Hs-578T, > 100 µM (inactive). The GI50 in the experiment with IGROV-1, with LOX IMVI, in the experiment on M14, in the experiment on MCF7, with NCI-H460 and in the experiment on NCI/ADR-RES was > 100 µM (inactive) in each case. Also, the GI50 with OVCAR-3, in the experiment on OVCAR-8, in the experiment with PC-3, with SF-295, in the experiment with SK-MEL-2 and in the experiment with SNB-19 was > 100 µM (inactive) throughout. Further, the GI50 with SW-620 and with U-251 was > 100 µM (inactive) each time.

These data come from ChEMBL document CHEMBL1201862, “PubChem BioAssay data set” (2004).
